According to patent publication US20230203004A1, “RSV INHIBITING 3-SUBSTITUTED QUINOLINE AND CINNOLINE DERIVATIVES” (Janssen Sciences Ireland Unlimited Company, priority 2020, published 2023):
Read-outs that look alike come from different tables or passages of the source.

Assays:
rgRSV224 virus = assay: Antiviral activity: rgRSV224 (GFP) replication in HeLa cells; assay type: cell-based, respiratory syncytial virus (RSV)
Method: (§1) Black 384-well clear-bottom microtiter plates (Corning, Amsterdam, The Netherlands) were filled via acoustic drop ejection using the echo liquid handler (Labcyte, Sunnyvale, California). 200 nL of compound stock solutions (100% DMSO) were transferred to the assay plates. 9 serial 4-fold dilutions of compound were made, creating per quadrant the same compound concentration. The assay was initiated by adding 10 µL of culture medium to each well (RPMI medium without phenol red, 10% FBS-heat inactivated, 0.04% gentamycin (50 mg/mL). All addition steps are done by using a multidrop dispenser (Thermo Scientific, Erembodegem, Belgium). Next, rgRSV224 virus (MOI = 1) diluted in culture medium was added to the plates. rgRSV224 virus is an engineered virus that includes an additional GFP gene (Hallak LK, Spillmann D, Collins PL, Peeples ME. Glycosaminoglycan sulfation requirements for respiratory syncytial virus infection; Journal of virology (2000), 74(22), 10508-13) and was in-licensed from the NIH (Bethesda, MD, USA). Finally, 20 µL of a HeLa cell suspension (3,000 cells/well) were plated. Medium, virus- and mock-infected controls were included in each test. The wells contain […] DMSO per volume. Cells were incubated at 37° C. in a 5% CO2 atmosphere. Three days post-virus exposure, viral replication was quantified by measuring GFP expression in the cells by an in house developed MSM laser microscope (Tibotec, Beerse, Belgium). The EC50 was defined as the 50% inhibitory concentration for GFP expression. In parallel, compounds were incubated for three days in a set of white 384-well microtiter plates (Corning) and the cytotoxicity of compounds in HeLa cells was determined by measuring the ATP content of the cells using the ATPlite kit (Perkin Elmer, Zaventem, Belgium) according to the manufacturer’s instructions. The CC50 was defined as the 50% concentration for cytotoxicity.

[1] = Cytotoxicity in HeLa cells (ATP content, ATPlite kit); assay type: cell-based; conditions: human
Method: as §1

[2] = human respiratory syncytial virus, HeLa, 72 h, read-out: RSV HELA EC50, HeLa cells, rgRSV224 MOI = 1, GFP expression three days post-virus exposure, averaged data of several repeat experiments
[3] = human respiratory syncytial virus, HeLa, comparison table 5.3, antiviral RSV assay of Example 5.1

COc1cc(C(=O)NC[C@](O)(c2nc(-c3ccc(F)cc3)c(F)c(C(C)(C)O)c2F)C2CC2)cc2cc(C3CC3)nnc12 [compound 288, (-)Cyclopropyl-N-(2-Cyclopropyl-2-(3,5-Difluoro-6-(4-Fluorophenyl)-4-(2-Hydroxypropan-2-yl)Pyridin-2-yl)-2-Hydroxyethyl)-8-Methoxycinnoline-6-Carboxamide]
EC50 (rgRSV224 virus; [2]): 4.8 nM | CC50 at 3 days ([1]; TOX HELA CC50): 21000 nM

COc1cc(C(=O)NC[C@](O)(c2nc(-c3ccc(F)cc3)c(F)c(C(C)(C)O)c2F)C2CC2)cc2cc(C(F)F)nnc12 [compound 287]
EC50 (rgRSV224 virus; [2]): 8.9 nM | CC50 at 3 days ([1]; TOX HELA CC50): 37000 nM

COc1cc(C(=O)NC[C@](O)(c2cc(C(C)(C)O)c(Cl)c(-c3ccc(F)cc3)n2)C2CC2)cc2cc(C3CC3)nnc12 [compound 282]
EC50 (rgRSV224 virus; [2]): 3.2 nM | CC50 at 3 days ([1]; TOX HELA CC50): 13000 nM

COc1cc(C(=O)NC[C@](O)(c2nc(-c3ccc(F)cc3)c(F)c(C(C)(C)NC(C)=O)c2F)C(F)(F)F)cc2cc(C)nnc12 [compound 241, (-)-N-{2-[4-(2-Acetamidopropan-2-yl)-3,5-Difluoro-6-(4-Fluorophenyl)Pyridin-2-yl]-3,3,3-Trifluoro-2-Hydroxypropyl}-8-Methoxy-3-Methylcinnoline-6-Carboxamide]
EC50 (rgRSV224 virus; [2]): 1.5 nM | CC50 at 3 days ([1]; TOX HELA CC50): 50000 nM

COc1cc(C(=O)NC[C@](O)(c2cc(C(C)(C)O)c(F)c(-c3ccc(F)cc3)n2)C2CC2)cc2cc(C3CC3)nnc12 [compound 271, 3-Cyclopropyl-N-{(-)-2-Cyclopropyl-2-[5-Fluoro-6-(4-Fluorophenyl)-4-(2-Hydroxypropan-2-yl)Pyridin-2-yl]-2-Hydroxyethyl)-8-Methoxycinnoline-6-Carboxamide]
EC50 (rgRSV224 virus; [2]): 1.5 nM | EC50 (rgRSV224 virus; [3]): 1.5 nM | CC50 at 3 days ([1]; CC50): 11000 nM | CC50 at 3 days ([1]; TOX HELA CC50): 11000 nM

CC(C)(O)c1cc([C@@](O)(CNC(=O)c2cc(OC3CC3)c3ncccc3c2)C(F)(F)F)nc(-c2ccc(F)cc2)c1F [Compound A, reference compound]
EC50 (rgRSV224 virus; [3]): 14 nM | CC50 at 3 days ([1]; CC50): 37000 nM

COc1cc(C(=O)NC[C@@](O)(c2cc(C(C)(C)O)cc(-c3ccc(F)cc3)n2)C(C)(F)F)cc2cc(C)nnc12 [compound 310, (+)-N-(3,3-difluoro-2-(6-(4-fluorophenyl)-4-(2-hydroxypropan-2-yl)pyridin-2-yl)-2-hydroxybutyl)-8-methoxy-3-methylcinnoline-6-carboxamide]
EC50 (rgRSV224 virus; [2]): > 1250 nM | CC50 at 3 days ([1]; TOX HELA CC50): 55000 nM

COc1cc(C(=O)NC[C@@](O)(c2cc(C(C)(C)NS(C)(=O)=O)c(Cl)c(-c3ccc(F)cc3)n2)C(F)(F)F)cc2cc(C)nnc12 [compound 233, (+)-N-{2-[5-Chloro-6-(4-Fluorophenyl)-4-{2-[(Methanesulfonyl)Amino]Propan-2-yl}Pyridin-2-yl]-3,3,3-Trifluoro-2-Hydroxypropyl}-8-Methoxy-3-Methylcinnoline-6-Carboxamide]
EC50 (rgRSV224 virus; [2]): 400 nM | CC50 at 3 days ([1]; TOX HELA CC50): 43000 nM

COc1cc(C(=O)NC[C@](O)(c2cc(C(C)(C)O)c(F)c(-c3ccc(F)cc3)n2)C(F)(F)F)cc2cc(C(F)F)nnc12 [compound 266, (-)(Difluoromethyl)-8-Methoxy-N-{3,3,3-Trifluoro-2-[5-Fluoro-6-(4-Fluorophenyl)-4-(2-Hydroxypropan-2-yl)Pyridin-2-yl]-2-Hydroxypropyl}Cinnoline-6-Carboxamide]
EC50 (rgRSV224 virus; [2]): 3.5 nM | CC50 at 3 days ([1]; TOX HELA CC50): 25000 nM

COc1cc(C(=O)NCC(O)(c2cc(C(C)(C)N)c(F)c(-c3ccc(F)c(Cl)c3)n2)C(F)(F)F)cc2cccnc12 (stereo not drawn) [reference compound]
EC50 (rgRSV224 virus; [3]): 53 nM | CC50 at 3 days ([1]; CC50): 13000 nM

COc1cc(C(=O)NC[C@](O)(c2cc(C(C)(C)NS(C)(=O)=O)c(Cl)c(-c3ccc(F)cc3)n2)C(F)(F)F)cc2cc(C)nnc12 [compound 276, (-)-N-{2-[5-Chloro-6-(4-Fluorophenyl)-4-{2-[(Methanesulfonyl)Amino]Propan-2-yl}Pyridin-2-yl]-3,3,3-Trifluoro-2-Hydroxypropyl}-8-Methoxy-3-Methylcinnoline-6-Carboxamide]
EC50 (rgRSV224 virus; [2]): 3.8 nM | CC50 at 3 days ([1]; TOX HELA CC50): 51000 nM

COc1cc(C(=O)NC[C@](O)(c2cc(C(C)(C)O)cc(-c3ccc(F)cc3)n2)C2CC2)cc2cc(C)nnc12 [compound 304]
EC50 (rgRSV224 virus; [2]): 2.1 nM | CC50 at 3 days ([1]; TOX HELA CC50): 23000 nM

COc1cc(C(=O)NC[C@@](O)(c2cc(C(C)(C)O)c(F)c(-c3ccc(F)cc3)n2)C2C[C@H]2F)cc2cc(C)nnc12 (single isomer, unassigned) [compound 303, N-((*R)(5-Fluoro-6-(4-Fluorophenyl)-4-(2-Hydroxypropanyl)Pyridinyl)((l*R, 2*R)Fluorocyclopropyl)Hydroxyethyl)-8-Methoxy-3-Methylcinnoline-6-Carboxamide]
EC50 (rgRSV224 virus; [2]): 295 nM | CC50 at 3 days ([1]; TOX HELA CC50): 23000 nM

COc1cc(C(=O)NC[C@](O)(c2cc(C(C)(C)O)c(F)c(-c3ccc(F)cc3)n2)C2C[C@H]2F)cc2cc(C)nnc12 (single isomer, unassigned) [compound 300, N-((*S)(5-Fluoro-6-(4-Fluorophenyl)-4-(2-Hydroxypropanyl)Pyridinyl)((1*S,2*R)Fluorocyclopropyl)Hydroxyethyl)-8-Methoxy-3-Methylcinnoline-6-Carboxamide]
EC50 (rgRSV224 virus; [2]): 0.7 nM | CC50 at 3 days ([1]; TOX HELA CC50): 27000 nM

COc1cc(C(=O)NC[C@](O)(c2cc(C(C)(C)O)c(F)c(-c3ccc(F)c(C)c3)n2)C(F)(F)F)cc2cc(C)nnc12 [compound 238, (+)Methoxy-3-Methyl-N-{3,3,3-Trifluoro-2-[5-Fluoro-6-(4-Fluoro-3-Methylphenyl)-4-(2-Hydroxypropan-2-yl)Pyridin-2-yl]-2-Hydroxypropyl}Cinnoline-6-Carboxamide]
EC50 (rgRSV224 virus; [2]): 2.9 nM | CC50 at 3 days ([1]; TOX HELA CC50): 23000 nM

COc1cc(C(=O)NC[C@](O)(c2cc(C(C)(C)O)c(Cl)c(-c3ccc(F)cc3)n2)C2CC2)cc2cc(C)nnc12 [compound 251, N-{(-)[5-Chloro-6-(4-Fluorophenyl)-4-(2-Hydroxypropanyl)Pyridinyl]CyclopropylHydroxyethyl}-8-Methoxy-3-Methylcinnoline-6-Carboxamide]
EC50 (rgRSV224 virus; [2]): 0.53 nM | CC50 at 3 days ([1]; TOX HELA CC50): 28000 nM

COc1cc(C(=O)NC[C@](O)(c2cc(C(C)(C)O)c(Cl)c(-c3ccc(F)cc3)n2)C(F)(F)F)cc2cc(C(F)(F)F)nnc12 [compound 277]
EC50 (rgRSV224 virus; [2]): 16 nM | CC50 at 3 days ([1]; TOX HELA CC50): 15000 nM

COc1cc(C(=O)NC[C@](O)(c2cc(C(C)(C)O)c(F)c(-c3ccc(F)cc3)n2)C(F)(F)F)cc2cc(CF)cnc12 [compound 324, (-)(Fluoromethyl)-8-Methoxy-N-(3,3,3-Trifluoro-2-(5-Fluoro-6-(4-Fluorophenyl)-4-(2-Hydroxypropan-2-yl)Pyridin-2-yl)-2-Hydroxypropyl)Quinoline-6-Carboxamide]
EC50 (rgRSV224 virus; [2]): 12 nM | CC50 at 3 days ([1]; TOX HELA CC50): 4000 nM

COc1cc(C(=O)NC[C@](O)(c2cc(C(C)(C)O)c(Cl)c(-c3ccc(F)cc3)n2)C(F)(F)F)cc2cc(C(F)F)cnc12 [compound 327, (-)(Difluoromethyl)-8-Methoxy-N-(3,3,3-Trifluoro-2-(5-Chloro-6-(4-Fluorophenyl)-4-(2-Hydroxypropan-2-yl)Pyridin-2-yl)-2-Hydroxypropyl)Quinoline-6-Carboxamide]
EC50 (rgRSV224 virus; [2]): 9.5 nM | CC50 at 3 days ([1]; TOX HELA CC50): 15000 nM

COc1cc(C(=O)NC[C@](O)(c2cc(C(C)(C)O)c(F)c(-c3ccc(Cl)cc3)n2)C2CC2)cc2cc(C)cnc12 [compound 208, (-)-N-{2-[6-(4-chlorophenyl)-5-fluoro-4-(2-hydroxypropan-2-yl)pyridin-2-yl]-2-cyclopropyl-2-hydroxyethyl}-8-methoxy-3-methylquinoline-6-carboxamide]
EC50 (rgRSV224 virus; [2]): 1 nM | CC50 at 3 days ([1]; TOX HELA CC50): 14000 nM

COc1cc(C(=O)NC[C@](O)(c2nc(-c3ccc(F)cc3)c(Cl)c(C(C)(C)O)c2F)C(F)(F)F)cc2cc(C)nnc12 [compound 247, (-)-N-{2-[5-Chloro-3-Fluoro-6-(4-Fluorophenyl)-4-(2-Hydroxypropan-2-yl)Pyridin-2-yl]-3,3,3-Trifluoro-2-Hydroxypropyl}-8-Methoxy-3-Methylcinnoline-6-Carboxamide]
EC50 (rgRSV224 virus; [2]): 1.9 nM | CC50 at 3 days ([1]; TOX HELA CC50): 51000 nM

Cc1cnc2c(OC3CC3)cc(C(=O)NC[C@](O)(c3cc(C(C)(C)O)c(F)c(-c4ccc(F)cc4)n3)C(F)(F)F)cc2c1 [compound 323, (-)Cyclopropoxy-3-Methyl-N-(3,3,3-Trifluoro-2-(5-Fluoro-6-(4-Fluorophenyl)-4-(2-Hydroxypropan-2-yl)Pyridin-2-yl)-2-Hydroxypropyl)Quinoline-6-Carboxamide]
EC50 (rgRSV224 virus; read-out: RSV HELA EC50, HeLa cells, rgRSV224 MOI = 1, GFP expression three days post-virus exposure, averaged data of several repeat experiments): 3.8 nM
